Target: T1, PI3Kα H1047R (T47D cells) (Homo sapiens, UniProt P42336, H1047R)
T1 construct: endogenous in cells; host or cells: T47D cells
Test: PI3Kα cellular assay: pAKT HTRF in T47D cells after EGF stimulation
Type: cell-based
Conditions: for IC50: T47D cells (PI3Kα H1047R), pAKT S473 HTRF, EGF stimulation
Outline: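 T47D cells (PIK3CA H1047R) serum-starved 16 h, then treated 1 h at 37 °C with compound (10,000 nM top, 3-fold steps to 0.5 nM). After 10 min stimulation with 20 ng/mL EGF, cells were lysed and pAKT measured by HTRF.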

T1 sequence (P42336 whole entry H1047R): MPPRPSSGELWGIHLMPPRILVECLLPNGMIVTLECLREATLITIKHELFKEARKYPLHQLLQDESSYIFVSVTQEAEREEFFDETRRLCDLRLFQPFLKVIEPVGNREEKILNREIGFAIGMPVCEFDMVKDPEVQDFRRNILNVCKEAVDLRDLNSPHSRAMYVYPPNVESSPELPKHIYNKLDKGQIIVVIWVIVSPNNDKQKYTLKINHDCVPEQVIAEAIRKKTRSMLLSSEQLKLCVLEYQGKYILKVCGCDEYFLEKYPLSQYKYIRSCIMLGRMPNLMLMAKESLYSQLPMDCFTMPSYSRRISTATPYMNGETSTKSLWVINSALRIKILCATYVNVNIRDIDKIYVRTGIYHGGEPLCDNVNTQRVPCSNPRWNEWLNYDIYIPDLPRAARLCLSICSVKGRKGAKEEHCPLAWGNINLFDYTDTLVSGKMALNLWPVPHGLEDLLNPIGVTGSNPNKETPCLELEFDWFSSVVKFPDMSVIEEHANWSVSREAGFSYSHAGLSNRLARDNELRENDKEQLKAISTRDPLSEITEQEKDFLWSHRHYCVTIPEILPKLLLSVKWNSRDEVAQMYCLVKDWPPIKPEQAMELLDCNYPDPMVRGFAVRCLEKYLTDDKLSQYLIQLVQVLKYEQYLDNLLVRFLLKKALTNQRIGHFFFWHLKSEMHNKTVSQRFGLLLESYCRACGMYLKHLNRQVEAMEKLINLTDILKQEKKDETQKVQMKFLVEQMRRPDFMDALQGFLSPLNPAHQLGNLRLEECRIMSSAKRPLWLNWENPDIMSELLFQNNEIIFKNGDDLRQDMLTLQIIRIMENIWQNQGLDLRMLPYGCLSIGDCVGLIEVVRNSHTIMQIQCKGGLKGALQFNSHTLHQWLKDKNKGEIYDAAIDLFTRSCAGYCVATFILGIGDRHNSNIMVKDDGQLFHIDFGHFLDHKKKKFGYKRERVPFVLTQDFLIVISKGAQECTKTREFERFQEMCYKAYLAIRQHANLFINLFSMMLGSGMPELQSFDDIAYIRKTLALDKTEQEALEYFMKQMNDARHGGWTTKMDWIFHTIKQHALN
T1 sequence (P27986 whole entry partner): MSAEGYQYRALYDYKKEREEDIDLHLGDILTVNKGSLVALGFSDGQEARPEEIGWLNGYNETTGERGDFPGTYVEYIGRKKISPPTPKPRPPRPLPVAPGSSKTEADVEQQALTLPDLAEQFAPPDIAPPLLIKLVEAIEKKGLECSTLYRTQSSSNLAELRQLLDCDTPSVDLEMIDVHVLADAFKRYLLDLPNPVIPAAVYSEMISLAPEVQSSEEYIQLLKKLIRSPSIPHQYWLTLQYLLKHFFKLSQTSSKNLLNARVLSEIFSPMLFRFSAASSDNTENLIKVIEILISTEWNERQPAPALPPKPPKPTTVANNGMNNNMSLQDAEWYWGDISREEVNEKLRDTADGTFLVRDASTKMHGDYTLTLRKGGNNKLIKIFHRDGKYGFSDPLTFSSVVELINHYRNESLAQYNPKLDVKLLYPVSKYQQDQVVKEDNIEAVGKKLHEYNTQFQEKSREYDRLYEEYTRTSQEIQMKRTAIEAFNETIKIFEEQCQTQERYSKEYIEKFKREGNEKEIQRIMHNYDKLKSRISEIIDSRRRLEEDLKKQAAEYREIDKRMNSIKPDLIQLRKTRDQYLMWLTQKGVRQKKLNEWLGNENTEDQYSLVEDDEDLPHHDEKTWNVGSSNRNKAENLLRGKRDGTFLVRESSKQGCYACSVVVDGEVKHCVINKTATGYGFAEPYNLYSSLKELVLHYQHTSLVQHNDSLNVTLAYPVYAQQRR

IC50 [nM]	T47D pAKT S473 HTRF IC50 (H1047R): T47D (H1047R) selectivity over SKBR3 (WT)	Structure (SMILES)
100 to 500	A (A denotes >20-fold)	Cc1cc([C@@H](C)Nc2ccccc2)c2nc(N(C)Cc3ccccc3)c(C)c(=O)n2c1 [Compound 1163]
< 100	A (A denotes >20-fold)	Cc1cc(C(C)Nc2ccccc2C(=O)O)c2nc(-c3cc(F)cc(C4CC4)c3)c(C)c(=O)n2c1 (stereo not drawn) [Compound 1169]
< 100	A (A denotes >20-fold)	Cc1cc(C(C)Nc2ccccc2C(=O)O)c2nc(-c3ccc(C(C)C)nc3)c(C)c(=O)n2c1 (stereo not drawn) [Compound 1178]
< 100	A (A denotes >20-fold)	Cc1cc(C(C)Nc2cc(F)ccc2C(=O)O)c2nc(-c3ccnc(C4CC4)c3)c(C)c(=O)n2c1 (stereo not drawn) [Compound 1182]
500 to 2000	B (B denotes 20-fold≥value>5-fold)	CC#Cc1nc2c(C(C)Nc3ccccc3C(=O)O)cc(C)cn2c(=O)c1C (stereo not drawn) [Compound 1185]
100 to 500	A (A denotes >20-fold)	Cc1cc(C(C)Nc2ccccc2C(=O)O)c2nc(C#CC3CC3)c(C)c(=O)n2c1 (stereo not drawn) [Compound 1186]
< 100	A (A denotes >20-fold)	C#Cc1ccc(-c2nc3c(C(C)Nc4ccccc4C(=O)O)cc(C)cn3c(=O)c2C)cn1 (stereo not drawn) [Compound 1191]
< 100	A (A denotes >20-fold)	Cc1cc(C(C)Nc2cc(F)ccc2C(=O)O)c2nc(-c3cccc(F)c3)c(C)c(=O)n2c1 (stereo not drawn) [Compound 1197]
> 2000	C (C denotes ≤5-fold)	Cc1cc([C@@H](C)Nc2ccccc2C(=O)O)c2nc(-c3ccnc(C)n3)c(C)c(=O)n2c1 [Compound 1198]
	A (A denotes >20-fold)	Cc1cc(C(C)Nc2ccccc2C(=O)O)c2nc(-c3ccnc(C)c3)c(C)c(=O)n2c1 (stereo not drawn) [Compound 1202]
100 to 500	A (A denotes >20-fold)	Cc1cc(C(C)Nc2ccccc2C(=O)O)c2nc(-c3cc(C)ncn3)c(C)c(=O)n2c1 (stereo not drawn) [Compound 1203]
> 2000	C (C denotes ≤5-fold)	CC#Cc1nc2c([C@@H](C)Nc3ccccc3C(=O)O)cc(C)cn2c(=O)c1C [Compound 1205]
500 to 2000	B (B denotes 20-fold≥value>5-fold)	CC#Cc1nc2c([C@H](C)Nc3ccccc3C(=O)O)cc(C)cn2c(=O)c1C [Compound 1206]
100 to 500	A (A denotes >20-fold)	Cc1cc([C@H](C)Nc2ccccc2C(=O)O)c2nc(N3Cc4ccccc4C3)c(C#N)c(=O)n2c1 [Compound 1208]
< 100	A (A denotes >20-fold)	Cc1cc(C(C)Nc2cccnc2C(=O)O)c2nc(-c3cccc(F)c3)c(C)c(=O)n2c1 (stereo not drawn) [Compound 1223]
	C (C denotes ≤5-fold)	Cc1cc([C@@H](C)Nc2ccccc2C(=O)O)c2nc(C#CC3CC3)cc(=O)n2c1 [Compound 1224]
< 100	A (A denotes >20-fold)	Cc1cc(C(C)Nc2ccccc2C(=O)O)c2nc(-c3cccc(F)c3)c(C3CC3)c(=O)n2c1 (stereo not drawn) [Compound 1231]

IC50 [nM]	T47D pAKT S473 HTRF IC50 (H1047R): T47D (H1047R) selectivity over SKBR3 (WT)	Structure (SMILES)
< 100	A (A denotes >20-fold)	Cc1cc(C(C)Nc2ccc(F)cc2C(=O)O)c2nc(-c3cccc(F)c3)c(C)c(=O)n2c1 (stereo not drawn) [Compound 1238]
> 2000	A (A denotes >20-fold)	Cc1cc(C(C)Nc2cccnc2C(=O)O)c2nc(-c3ccnc(C4CC4)c3)c(C)c(=O)n2c1 (stereo not drawn) [Compound 1241]
	A (A denotes >20-fold)	Cc1cccc(-c2nc3c(C(C)Nc4ccccc4C(=O)O)cc(C)cn3c(=O)c2C(C)C)c1 (stereo not drawn) [Compound 1245]
100 to 500	A (A denotes >20-fold)	Cc1cc(C(C)Nc2ccccc2S(N)(=O)=O)c2nc(-c3cccc(F)c3)c(C)c(=O)n2c1 (stereo not drawn) [Compound 1248]
100 to 500	A (A denotes >20-fold)	Cc1cc(C(C)Nc2ccccc2C(=O)O)c2nc(OC3CCCOC3)c(C)c(=O)n2c1 (stereo not drawn) [Compound 1254]
< 100	A (A denotes >20-fold)	Cc1cc(C(C)Nc2ccccc2C(=O)O)c2nc(-c3ccc(F)cc3)c(C#N)c(=O)n2c1 (stereo not drawn) [Compound 1260]
100 to 500	A (A denotes >20-fold)	Cc1cc(C(C)Nc2ccccc2S(N)(=O)=O)c2nc(-c3cccnc3)c(C3CC3)c(=O)n2c1 (stereo not drawn) [Compound 1261]
< 100	A (A denotes >20-fold)	CNC(=O)C#Cc1ccc(-c2nc3c([C@@H](C)Nc4ccccc4C(=O)O)cc(C)cn3c(=O)c2C)cc1F [Compound 1264]
> 2000	C (C denotes ≤5-fold)	CNC(=O)C#Cc1ccc(-c2nc3c([C@H](C)Nc4ccccc4C(=O)O)cc(C)cn3c(=O)c2C)cc1F [Compound 1265]
	C (C denotes ≤5-fold)	Cc1cc([C@H](C)Nc2ccccc2C(=O)O)c2nc(-c3ccc(C#CC4(C)CCC4)c(F)c3)c(C)c(=O)n2c1 [Compound 1267]
< 100	A (A denotes >20-fold)	Cc1cc([C@@H](C)Nc2ccccc2C(=O)O)c2nc(-c3ccc(-c4ccc5c(c4)CCO5)c(F)c3)c(C)c(=O)n2c1 [Compound 1268]
> 2000	C (C denotes ≤5-fold)	Cc1cc([C@H](C)Nc2ccccc2C(=O)O)c2nc(-c3ccc(-c4ccc5c(c4)CCO5)c(F)c3)c(C)c(=O)n2c1 [Compound 1269]
	B (B denotes 20-fold≥value>5-fold)	COCC1=NC(C#N)C(NCc2ccc(-c3nc4c([C@H](C)Nc5ccccc5C(=O)O)cc(C)cn4c(=O)c3C)cc2F)O1 (stereo partly drawn) [Compound 1271]
100 to 500	A (A denotes >20-fold)	Cc1cc(C(C)Nc2ccccc2C(=O)O)c2nc(-c3cnc(C4CCOCC4)nc3)c(C)c(=O)n2c1 (stereo not drawn) [Compound 1272]
100 to 500	A (A denotes >20-fold)	Cc1cc([C@@H](C)Nc2ccccc2S(=O)(=O)O)c2nc(-c3ccc(C4CC4)cc3)c(C3CC3)c(=O)n2c1 [Compound 1274]
> 2000	C (C denotes ≤5-fold)	Cc1cc([C@H](C)Nc2ccccc2S(=O)(=O)O)c2nc(-c3ccc(C4CC4)cc3)c(C3CC3)c(=O)n2c1 [Compound 1275]
< 100	C (C denotes ≤5-fold)	Cc1cc([C@H](C)Nc2ccccc2C(=O)O)c2nc(-c3ccc(-c4ccc5oc(=O)n(C)c5c4)c(C)c3)c(C)c(=O)n2c1 [Compound 1276]

— patent publication US20260132129A1 (Genesis Therapeutics, Inc., priority 2022, published 2026)
